Tests used:
Type in all cases: cell-based
MEIS1 gene expression [1] = test: Inhibition of MEIS1 gene expression in human tumor cells (qRT-PCR), MOLM-13; conditions: MOLM-13 (carrying MLL-AF9), 48 hours of incubation, relative MEIS1 gene expression vs GAPDH
Procedure, shortened: (§1)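 MV-4-11 (MLL-AF4; IMDM, 10% FBS), MOLM-13 (MLL-AF9) and OCI-AML3 (NPM1c) (RPMI-1640, 20% FBS) seeded at 100,000 cells/well and treated 48 h with serially diluted compound. MEIS1 mRNA measured by one-step probe qRT-PCR from total RNA, triplicates, GAPDH primer/probe included; EC50 for inhibition of relative MEIS1 expression.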

MEIS1 gene expression [2] = test: Inhibition of MEIS1 gene expression in human tumor cells (qRT-PCR), MV-4-11; conditions: MV4-11, MV-4-11 (carrying MLL-AF4), 48 hours of incubation, relative MEIS1 gene expression vs GAPDH, read-out: MV-4-11 MEISI EC50
Procedure, shortened: as §1

MEIS1 gene expression [3] = test: Inhibition of MEIS1 gene expression in human tumor cells (qRT-PCR), OCI-AML3; conditions: OCI-AML-3, OCI-AML3 (carrying NPM1c), 48 hours of incubation, relative MEIS1 gene expression vs GAPDH
Excerpt: Experimental Example 3: Evaluation of Inhibitory Activity of Compounds Against MEISI Gene Expression in Human Tumor Cells
The effect of test samples on MEIS1 gene expression in vitro cultured human leukemia cells MV-4-11 (carrying MLL-AF4), MOLM-13 (carrying MLL-AF9), and OCI-AML3 (carrying NPM1c) was studied.
• Human acute lymphoblastic leukemia cells MV-4-11, purchased from American Type Culture Collection, Catalog Number: CRL-9591; • Human acute myeloid leukemia cells MOLM-13, purchased from COBIOER BIOSCIENCES CO., LTD, Catalog Number: CBP60678; • Human acute myeloid leukemia cells OCI-AML3, purchased from COBIOER BIOSCIENCES CO., LTD, Catalog Number: CBP60817; • MEIS1 Primer/Probe, purchased from IDT, Catalog Number: 40831613; and • GAPDH Primer/Probe, purchased from IDT, Catalog Number: 22214836.
MV-4-11 cells were cultured in an IMDM medium containing 10% fetal bovine serum, or MOLM-13 and OCI-AML3 cells were cultured in an RPMI-1640 medium containing 20% fetal bovine serum, each supplemented with 100 U·mL^-1 penicillin and 100 µg·mL^-1 streptomycin. These cells were cultured at 37°C with 5% CO2. The suspensions of individual cell lines were prepared in their respective media and seeded into 48-well plates at a density of 100,000 cells/well. On the day of the experiment, a compound stock solution was diluted in a 6-fold gradient using DMSO. Each gradient-diluted stock solution was then further diluted 250-fold with a complete medium to prepare a series of working solutions at different concentrations. Next, 250 µL of working solution (containing the complete medium with a 2-fold serial concentration of the test compound or a positive control compound, or containing a control complete medium) was added to each well. After 48 hours of incubation, cells from the 48-well plate were collected into 1 mL centrifuge tubes, centrifuged at 1000 rpm for 5 minutes, and the complete medium was removed. Cells were washed twice with 1 mL PBS and centrifuged to remove PBS. Total RNA was extracted using the RNeasy Mini Kit (250) (QIAGEN, 74106). The threshold cycle (Ct) value for gene expression was determined using the HiScript II U+ One Step qRT-PCR Probe Kit (Vazyme) (Vazyme, Q223-01), with 3 replicates per sample. The prepared reaction mixture was placed in an ABI 7500 real-time PCR instrument, and the reaction proceeded following the procedures below. [formula]
Next, for the relative MEIS1 gene expression, the concentration (EC50) that inhibits 50% of relative MEIS1 gene expression was calculated using GraphPad Prism 8 software.

EC50 (MEIS1 gene expression [1]) [nM] | EC50 (MEIS1 gene expression [2]) [nM] | EC50 (MEIS1 gene expression [3]) [nM] | Compound
15 | 19 | 33 | CC(=O)N1CCC([C@H](C)N2CC(c3cc(-c4ccc(F)cc4C(=O)N4CCOC[C@H]4C)c4c(F)nc(C)n4c3)C2)CC1 [Example 257-2, 1-{4-[(1S)-1-[3-(1-fluoro-8-{4-fluoro-2-[(3R)-3-methylmorpholin-4-carbonyl]phenyl}-3-methylimidazo[1,5-a]pyridin-6-yl)azacyclobutan-1-yl]ethyl]piperidin-1-yl}ethan-1-one]
23 | 61 | 34 | CC[C@@H](C1CCN(C(C)=O)CC1)N1CC(c2cc(-c3ccc(F)cc3C(=O)N3CCOC[C@H]3C)c3c(F)nc(C)n3c2)C1 [Example 280-1, 1-{4-[(1S)-1-[3-(1-fluoro-8-{4-fluoro-2-[(3R)-3-methylmorpholin-4-carbonyl]phenyl}-3-methylimidazo[1,5-a]pyridin-6-yl)azacyclobutan-1-yl]propyl]piperidin-1-yl}ethan-1-one]
1.3 | 7.3 | 9.5 | CCN1CCN(CCC[C@H](C(C)C)N2CC(c3cc(-c4ccc(F)cc4C(=O)N4CCOC[C@H]4C)c4cnc(C)n4c3)C2)CC1 [Example 324-2]
4.6 | 5.5 | 33 | CCN(C(=O)c1cc(F)ccc1-c1cc(C2CN([C@H](CN3CCN(CCO)CC3)C(C)C)C2)cn2c(C)ncc12)C(C)C [Example 431, N-ethyl-5-fluoro-2-(6-{1-[(2S)-1-[4-(2-hydroxylethyl)piperazin-1-yl]-3-methylbutan-2-yl]azacyclobutan-3-yl}-3methylimidazo[1,5-a]pyridin-8-yl)-N-(isopropyl)benzamide]
1 | 3.4 | 2.4 | COC1CCN(CCCC(C(C)C)N2CC(c3cc(-c4ccc(F)cc4C(=O)N4CCOCC4C)c4c(F)nc(C)n4c3)C2)C1 (stereo not drawn) [Example 201-1]
1 | 12 | 13 | COCCN(C)CCC[C@H](C(C)C)N1CC(c2cc(-c3ccc(F)cc3C(=O)N3CCOC[C@H]3C)c3c(F)nc(C)n3c2)C1 [Example 200-1]
4.3 | 15 | 13 | COC1CCN(CCC[C@H](C(C)C)N2CC(c3cc(-c4ccc(F)cc4C(=O)N4CCOC[C@H]4C)c4c(F)nc(C)n4c3)C2)CC1 [Example 204, (3R)-4-[5-fluoro-2-(1-fluoro-6-{1-[(3R)-6-(4-methoxypiperidin-1-yl)-2-methylhexan-3-yl]azacyclobutan-3-yl}-3-methylimidazo[1,5-a]pyridin-8-yl)benzoyl]-3-methylmorpholine]
6.5 | 5 | 12 | CCN(C(=O)c1cc(F)ccc1-c1cc(C2CN([C@H](CCCN3CCN(C)CC3)C(C)C)C2)cn2c(C)ncc12)C(C)C [Example 310-2, N-ethyl-5-fluoro-2-(3-methyl-6-{1-[(3R)-2-methyl-6-(4-methylpiperazin-1-yl)hexan-3-yl]azacyclobutan-3-yl}imidazo[1,5-a]pyridin-8-yl)-N-(isopropyl)benzamide]
3.3 | 6.5 | 12 | CCN1CCN(CCC[C@H](C(C)C)N2CC(c3cc(-c4ccc(F)cc4C(=O)N4CCOC[C@H]4C)c4c(F)nc(C)n4c3)C2)CC1 [Example 277]
38 | 54 | 70 | CC(=O)N1CCN(CCC[C@H](C(C)C)N2CC(c3cc(-c4ccc(F)cc4C(=O)N4CCOC[C@H]4C)c4c(F)nc(C)n4c3)C2)CC1 [Example 265]
11 | 19 | 23 | CCN(C(=O)c1cc(F)ccc1-c1cc(C2CN([C@H](CCCN3CCN(C(C)=O)CC3)C(C)C)C2)cn2c(C)ncc12)C(C)C [Example 311-2, 2-(6-{1-[(3R)-6-(4-acetylpiperazin-1-yl)-2-methylhexan-3-yl]azacyclobutan-3-yl}-3-methylimidazo[1,5-a]pyridin-8-yl)-N-ethyl-5-fluoro-N-(isopropyl)benzamide]
12 | 32 | 34 | Cc1nc(F)c2c(-c3ccc(F)cc3C(=O)N3CCOC[C@H]3C)cc(C3CN([C@H](CO[C@@H]4CCCN(C)C4)C(C)C)C3)cn12 [Example 297-1, (3R)-4-[5-fluoro-2-(1-fluoro-3-methyl-6-{1-[(2S)-3-methyl-1-{[(3R)-1-methylpiperidin-3-yl]oxy}butan-2-yl]azacyclobutan-3-yl}imidazo[1,5-a]pyridin-8yl)benzoyl]-3-methylmorpholine]
8.4 | 8.6 | 17 | Cc1ncc2c(-c3ccc(F)cc3C(=O)N3CCOC[C@H]3C)cc(C3CN([C@H](CCCN4CCN(C)CC4)C(C)C)C3)cn12 [Example 323-2, (3R)-4-[5-fluoro-2-(3-methyl-6-{1-[(3R)-2-methyl-6-(4-methylpiperazin-1-yl)hexan-3-yl]azacyclobutan-3-yl}imidazo[1,5-a]pyridin-8-yl)benzoyl]-3-methylmorpholine]
2.4 | 7.4 | 21 | Cc1nc(F)c2c(-c3ccc(F)cc3C(=O)N3CCOC[C@H]3C)cc(C3CN([C@H](CCCN4C[C@H]5C[C@@H]4CO5)C(C)C)C3)cn12 [Example 353, (1R,4R)-5-[(4R)-4-[3-(1-fluoro-8-{4-fluoro-2-[(3R)-3-methylmorpholin-4-carbonyl]phenyl}-3-methylimidazo[1,5-a]pyridin-6-yl)azacyclobutan-1-yl]-5-methylhexyl]-2-oxa-5-azabicyclo[2.2.1]heptane]
9.1 | 23 | 31 | Cc1nc(F)c2c(-c3ccc(F)cc3C(=O)N3CCOC[C@H]3C)cc(C3CN([C@H](CCCN4CCC[C@H](O)C4)C(C)C)C3)cn12 [Example 293]

Compound | EC50 (MEIS1 gene expression [1]) [nM] | EC50 (MEIS1 gene expression [2]) [nM] | EC50 (MEIS1 gene expression [3]) [nM]
CCN(C(=O)c1cc(F)ccc1-c1cc(C2CN([C@H](CCCN3C4COCC3C4)C(C)C)C2)cn2c(C)ncc12)C(C)C [Example 423] | 2.3 | 1.3 | 6.1

Source: patent EP4782453A1 (Beyang Therapeutics Co., Ltd., priority 2023, dated 2025)
